Values quoted from earlier work, collected in patent US20090312435A1, “SUBSTITUTED PHENETHYLAMINES WITH SEROTONINERGIC AND/OR NOREPINEPHRINERGIC ACTIVITY” (AUSPEX PHARMACEUTICALS, INC, priority 2006, published 2009).
“And” between values parts separate entries of the source, which are not always exact repeats. Identical values can stand only once. Like-named read-outs stand apart in the source and are kept apart here.

Row | half-life (T1/2) (in humans) | half-life (T1/2) (human, in vivo) [h] | Compound
1 | ~5 h and 3 to 7 h | – | COc1ccc(C(CN(C)C)C2(O)CCCCC2)cc1 (racemic) [venlafaxine]
2 | – | ~11 | CN(C)CC(c1ccc(O)cc1)C1(O)CCCCC1 (centres unmarked) [O-desmethylvenlafaxine]
